pIC50: −log10 of the molar value.

This passage reports IC50 results from ChEMBL document CHEMBL5107989, “Design, synthesis and activity evaluation of isopropylsulfonyl-substituted 2,4- diarylaminopyrimidine derivatives as FAK inhibitors for the potential treatment of pancreatic cancer” (Eur J Med Chem, 2022).

Data set [1] is described as follows: Cytotoxicity against human L02 cells assessed as inhibition of cell growth incubated for 72 hrs by CCK-8 assay. In kind it is toxicity, cell-based.
In another data set the test system is ASPC1. As to the kind of experiment: cells. Conditions: Homo sapiens, ASPC1, 72 h.
The subject of another data set is MIA PaCa-2. The experiment in a line: cells. The following applies: Homo sapiens, MIA PaCa-2, 72 h.
A further data set has as its system NCI-H1975. The experiment in a line: cells. Conditions: Homo sapiens, NCI-H1975, 72 h.
The subject of a further data set is KM3/BTZ. As to the kind of experiment: cells. Conditions: Homo sapiens, 72 h.
A further data set deals with Raji. As to the kind of experiment: cells. The following applies: Homo sapiens, 72 h.
The next data set concerns the target Focal adhesion kinase 1 (Homo sapiens, UniProt Q05397). The experiment in a line: Inhibition of recombinant human FAK (393 to 698 residues) using poly (4:1 Glu, Tyr) peptide as substrate incubated for 60 mins in presence of ATP by ADP-Glo reagent based luminescent assay. On the technique in general: ADP-Glo turns the ADP formed in a reaction into a luminescent signal.

Chain of Focal adhesion kinase 1 (Q05397 whole entry, the tested form may be a part): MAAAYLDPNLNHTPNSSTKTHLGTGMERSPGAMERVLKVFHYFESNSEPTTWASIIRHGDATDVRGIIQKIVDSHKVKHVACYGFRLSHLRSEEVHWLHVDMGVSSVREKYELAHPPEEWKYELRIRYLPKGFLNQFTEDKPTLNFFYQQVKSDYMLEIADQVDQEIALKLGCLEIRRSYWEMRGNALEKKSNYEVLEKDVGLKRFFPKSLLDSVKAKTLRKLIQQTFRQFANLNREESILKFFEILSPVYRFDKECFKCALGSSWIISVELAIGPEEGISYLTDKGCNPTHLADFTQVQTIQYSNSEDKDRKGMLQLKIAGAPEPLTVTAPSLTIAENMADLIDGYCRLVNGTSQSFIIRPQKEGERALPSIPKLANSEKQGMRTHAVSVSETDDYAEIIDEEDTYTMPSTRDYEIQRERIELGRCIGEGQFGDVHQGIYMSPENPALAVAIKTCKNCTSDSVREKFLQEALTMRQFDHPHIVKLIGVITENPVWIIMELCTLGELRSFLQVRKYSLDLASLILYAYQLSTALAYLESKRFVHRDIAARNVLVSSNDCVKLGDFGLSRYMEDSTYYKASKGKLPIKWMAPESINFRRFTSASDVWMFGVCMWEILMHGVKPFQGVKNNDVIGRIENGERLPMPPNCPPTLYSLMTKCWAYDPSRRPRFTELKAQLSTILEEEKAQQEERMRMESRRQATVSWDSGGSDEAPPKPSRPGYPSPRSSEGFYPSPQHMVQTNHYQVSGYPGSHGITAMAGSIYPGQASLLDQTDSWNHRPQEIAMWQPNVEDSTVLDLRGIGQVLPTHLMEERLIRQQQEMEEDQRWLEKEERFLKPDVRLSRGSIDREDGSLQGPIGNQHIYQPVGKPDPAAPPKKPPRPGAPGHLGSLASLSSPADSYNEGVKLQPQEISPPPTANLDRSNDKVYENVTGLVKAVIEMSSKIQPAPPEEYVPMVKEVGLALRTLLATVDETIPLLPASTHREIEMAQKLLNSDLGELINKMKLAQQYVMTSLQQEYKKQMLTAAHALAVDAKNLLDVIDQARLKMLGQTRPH
Description for ASPC1: Antiproliferative activity against human ASPC1 cells harboring KRAS,TP53,CDKN2A and DPC4/SMAD4 mutations assessed as inhibition of cell growth incubated for 72 hrs by CCK-8 assay
Description for KM3/BTZ: Antiproliferative activity against bortezomib- resistant human KM3/BTZ cells assessed as inhibition of cell growth incubated for 72 hrs by CCK-8 assay
Description for MIA PaCa-2: Antiproliferative activity against human MIA PaCa-2 cells harboring KRAS,TP53,CDKN2A and DPC4/SMAD4 mutations assessed as inhibition of cell growth incubated for 72 hrs by CCK-8 assay
Description for NCI-H1975: Antiproliferative activity against gefitinib-resistant human NCI-H1975 cells assessed as inhibition of cell growth incubated for 72 hrs by CCK-8 assay
Description for Raji: Antiproliferative activity against human Raji cells assessed as inhibition of cell growth incubated for 72 hrs by CCK-8 assay

Turning to `CNC(=O)c1ccccc1Nc1nc(Nc2ccc(N3CCOCC3)cc2OC)ncc1Cl`, in data set [1], the IC50 at 72 h was 5.21 µM. Moreover, the negative-log IC50 (pIC50) is 5.32 in the data set with ASPC1; 5.28 with MIA PaCa-2; less than 5.00 with NCI-H1975; 5.36 with KM3/BTZ; less than 5.00 with Raji.
With `CC(C)S(=O)(=O)c1ccccc1Nc1nc(Nc2ccc(CN3CCSCC3)cc2)ncc1Cl`, the IC50 at 72 h in data set [1] was determined as 1.14 µM. The pIC50 is 6.13 in the data set with ASPC1; 6.35 with MIA PaCa-2; 5.46 with NCI-H1975; 5.60 with KM3/BTZ; 5.66 in the data set on Raji.
Consider `CC(C)S(=O)(=O)c1ccccc1Nc1nc(Nc2ccc(CN3CCC(C(=O)NCCCCCC(=O)NO)CC3)cc2)ncc1Cl`, for which, in data set [1], the concentration for half-maximal inhibition (IC50) at 72 h was 2.99 µM. Also, the negative logarithm of the IC50 (pIC50) in the data set with ASPC1 is 5.16; in the data set with MIA PaCa-2, 5.91; in the data set on NCI-H1975 it was 5.10; with KM3/BTZ, 5.54; in the data set on Raji, less than 5.00.
As for `CC(C)S(=O)(=O)c1ccccc1Nc1nc(Nc2ccc(CN3CCC(CO)CC3)cc2)ncc1Cl`, the concentration for half-maximal inhibition (IC50) at 72 h in data set [1] was determined as 0.192 µM. The negative-log IC50 (pIC50) in the data set with ASPC1 is 6.86; in the data set with MIA PaCa-2 it was 6.63; in the data set with NCI-H1975 it was 5.20; in the data set on KM3/BTZ it was 6.80; in the data set with Raji it was 5.91.
With `COC(=O)CCCCCNC(=O)C1CCN(c2ccc(Nc3ncc(Cl)c(Nc4ccccc4S(=O)(=O)C(C)C)n3)cc2)CC1`, the IC50 at 72 h in data set [1] is 1.98 µM. Besides, the pIC50 is 5.72 with ASPC1; 6.21 in the data set on MIA PaCa-2; 5.13 in the data set on NCI-H1975; 5.01 with KM3/BTZ; less than 5.00 with Raji.
Consider `CCC(C)C(CO)NC(=O)C1CCN(Cc2ccc(Nc3ncc(Cl)c(Nc4ccccc4S(=O)(=O)C(C)C)n3)cc2)CC1` (stereo not given), for which the half-maximal inhibitory concentration (IC50) at 72 h in data set [1] was 1.39 µM. Moreover, the pIC50 in the data set on ASPC1 was 6.40; in the data set with MIA PaCa-2 it was 5.72; in the data set on NCI-H1975, 5.09; with KM3/BTZ, 5.59; with Raji it was less than 5.00.
For the compound `CCOP(=O)(Cc1ccc(Nc2ncc(Cl)c(Nc3ccccc3S(=O)(=O)C(C)C)n2)cc1)OCC`, the negative logarithm of the IC50 (pIC50) at Focal adhesion kinase 1 is 9.50; with ASPC1 it was 5.53; in the data set on MIA PaCa-2, 5.33; with NCI-H1975, 5.53; with KM3/BTZ it was less than 5.00; with Raji, 5.78. Further, in data set [1], the concentration for half-maximal inhibition (IC50) at 72 h stood at 7.93 µM.
For the compound `CC(C)S(=O)(=O)c1ccccc1Nc1nc(Nc2ccc(N3CCC(C(=O)O)CC3)cc2)ncc1Cl`, the 50% inhibitory concentration (IC50) at 72 h in data set [1] amounted to 1.51 µM. Also, the negative-log IC50 (pIC50) in the data set on ASPC1 is 6.04; in the data set on MIA PaCa-2, 5.67; with NCI-H1975, 5.57; in the data set on KM3/BTZ it was 5.43; in the data set on Raji it was 5.83.
On to `CC(C)S(=O)(=O)c1ccccc1Nc1nc(Nc2ccc(CN3CCC(C(=O)O)CC3)cc2)ncc1Cl`, for which, in data set [1], the IC50 at 72 h amounted to 1.27 µM. The pIC50 is 6.33 in the data set on ASPC1; 5.95 with MIA PaCa-2; 5.55 in the data set with NCI-H1975; 5.99 in the data set on KM3/BTZ; less than 5.00 in the data set on Raji.
In the case of `CC(C)S(=O)(=O)c1ccccc1Nc1nc(Nc2ccc(NC(=O)CN3CCC(C(=O)O)CC3)cc2)ncc1Cl`, the half-inhibitory concentration (IC50) at 72 h in data set [1] was 2.32 µM. Also, the pIC50 with ASPC1 is 5.43; in the data set on MIA PaCa-2, 5.30; in the data set on NCI-H1975, 5.12; in the data set on KM3/BTZ, 5.67; with Raji, 5.49.
Regarding `CCOC(=O)C1CCN(c2ccc(Nc3ncc(Cl)c(Nc4ccccc4S(=O)(=O)C(C)C)n3)cc2)CC1`, in data set [1], the 50% inhibitory concentration (IC50) at 72 h turned out to be 0.981 µM. The negative-log IC50 (pIC50) in the data set with ASPC1 was 6.35; in the data set on MIA PaCa-2, 7.90; in the data set with NCI-H1975, 5.02; in the data set with KM3/BTZ, less than 5.00; in the data set with Raji it was less than 5.00.
In the case of `CC(C)S(=O)(=O)c1ccccc1Nc1nc(Nc2ccc(CN3CCC(C(=O)NCCO)CC3)cc2)ncc1Cl`, the IC50 at 72 h in data set [1] is 0.978 µM. Also, the pIC50 in the data set on ASPC1 is 6.54; with MIA PaCa-2, 6.34; in the data set with NCI-H1975 it was 6.31; with KM3/BTZ, 6.30; with Raji it was less than 5.00.
Consider `CCOC(=O)C1CCN(Cc2ccc(Nc3ncc(Cl)c(Nc4ccccc4S(=O)(=O)C(C)C)n3)cc2)CC1`, for which the concentration for half-maximal inhibition (IC50) at 72 h in data set [1] came to 0.453 µM. The pIC50 in the data set on ASPC1 is 6.53; in the data set on MIA PaCa-2, 5.15; in the data set on NCI-H1975, 5.68; with KM3/BTZ, 6.58; with Raji, 5.53.
In the case of `CC(C)S(=O)(=O)c1ccccc1Nc1nc(Nc2ccc(SCCCN3CCOCC3)cc2)ncc1Cl`, the IC50 at 72 h in data set [1] came to 8.65 µM. In addition, the negative-log IC50 (pIC50) in the data set with ASPC1 is 5.45; in the data set with MIA PaCa-2, 5.32; with NCI-H1975, 5.54; in the data set on KM3/BTZ, less than 5.00; in the data set on Raji, less than 5.00.
For `CCOC(=O)C1CCN(CC(=O)Nc2ccc(Nc3ncc(Cl)c(Nc4ccccc4S(=O)(=O)C(C)C)n3)cc2)CC1`, the IC50 at 72 h in data set [1] was found to be 1.22 µM. Besides, the pIC50 was 6.00 in the data set on ASPC1; 5.28 in the data set with MIA PaCa-2; 5.53 in the data set with NCI-H1975; 5.64 with KM3/BTZ; 5.88 with Raji.
As to `CC(C)S(=O)(=O)c1ccccc1Nc1nc(Nc2ccc(NC(=O)CN3CCC(C(=O)NCCCCCC(=O)NO)CC3)cc2)ncc1Cl`, in data set [1], the IC50 at 72 h is 5.05 µM. Also, the negative-log IC50 (pIC50) in the data set with ASPC1 is 5.50; in the data set with MIA PaCa-2, 5.91; in the data set with NCI-H1975, less than 5.00; in the data set on KM3/BTZ, less than 5.00; in the data set with Raji, less than 5.00.
With `COC(=O)CCCCCNC(=O)C1CCN(CC(=O)Nc2ccc(Nc3ncc(Cl)c(Nc4ccccc4S(=O)(=O)C(C)C)n3)cc2)CC1`, the concentration for half-maximal inhibition (IC50) at 72 h in data set [1] was determined as 7.01 µM. The pIC50 in the data set with ASPC1 is 5.23; in the data set with MIA PaCa-2 it was 5.91; in the data set with NCI-H1975, 5.42; with KM3/BTZ, less than 5.00; in the data set with Raji it was less than 5.00.
`CC(C)S(=O)(=O)c1ccccc1Nc1nc(Nc2ccc(OCC(=O)N3CCOCC3)cc2)ncc1Cl`: the half-maximal inhibitory concentration (IC50) at 72 h in data set [1] is 0.368 µM. Further, the pIC50 was 6.59 in the data set with ASPC1; 6.15 with MIA PaCa-2; 6.46 in the data set on NCI-H1975; 5.79 in the data set on KM3/BTZ; 5.49 in the data set on Raji.
In the case of `CC(C)S(=O)(=O)c1ccccc1Nc1nc(Nc2ccc(N3CCC(C(=O)NCCCCCC(=O)NO)CC3)cc2)ncc1Cl`, in data set [1], the 50% inhibitory concentration (IC50) at 72 h came to 0.755 µM. Also, the pIC50 in the data set on ASPC1 is 5.62; with MIA PaCa-2, 5.93; in the data set with NCI-H1975 it was 5.38; in the data set on KM3/BTZ it was less than 5.00; in the data set on Raji, less than 5.00.

The term IC50 denotes the concentration at which inhibition is half-maximal. What is called pIC50 is the negative decadic logarithm of the IC50, by convention in mol/L.
